Reference: article PMC5994920 (European journal of medicinal chemistry, 2017)

What was measured:
[1] = tested on: acetylated histone H3, acetylated histone H4, procaspase-3, cleaved caspase-3 and cleaved PARP; test: Western blot analysis in HL60 cells; type: cell-based, human; details: 48 h treatment
[2] = Intracellular fluid concentration; type: in vitro ADME; details: preliminary results, data not shown
[3] = Lip-water partition coefficient; type: physicochemical; details: compound concentration in n-octyl alcohol 5 mM
[4] = tested on: U937 human tumor xenografts; test: In vivo antitumor assay, U937 xenograft model; details: for Body weight loss compared with the control group (toxicity): oral, MS275 50 mg/kg/day, 11a 100 mg/kg/day
[5] = tested on: HCT116 human tumor xenografts; test: In vivo antitumor assay, HCT116 xenograft model; details: oral, 11a 100 mg/kg, SAHA 100 mg/kg, MS275 50 mg/kg

Structure (SMILES)	Level of acetylated histone H3 and acetylated histone H4 (western blot) [1]	Levels of procaspase-3, cleaved caspase-3 and cleaved PARP (western blot) [1]	Intracellular fluid concentration, times lower than 11a [2]	Detection in water phase in LogP test (water solubility) [3]	Body weight loss compared with the control group (toxicity) [4]	Body weight loss ([4]; first experiment, 100 mg/kg/day oral, three days later)	Body weight loss compared with the control group [5]
COc1ccc(C(=O)N[C@@H](Cc2c[nH]c3ccccc23)C(=O)NCc2ccc(C(=O)Nc3cc(-c4ccccc4)ccc3N)cc2)cc1 [Compound 56c, (S)-4-((3-(1H-indol-3-yl)-2-(4-methoxybenzamido)propanamido)methyl)-N-(4-amino-[1,1’-biphenyl]-3-yl)benzamide]	much less effects	could be hardly affected	more than 10 times	could hardly detect 56c in water phase			
COc1ccc(C(=O)N[C@@H](Cc2c[nH]c3ccccc23)C(=O)NCc2ccc(C(=O)Nc3ccccc3N)cc2)cc1 [Compound 11a, (S)-4-((3-(1H-indol-3-yl)-2-(4-methoxybenzamido)propanamido)methyl)-N-(2-aminophenyl)benzamide]	markedly increase	dramatically reduced the level of procaspase-3 and increased the level of cleaved caspased-3 and cleaved PARP			This toxicity didn’t appear		
Nc1ccccc1NC(=O)c1ccc(CNC(=O)OCc2cccnc2)cc1 [MS275]		dramatically reduced the level of procaspase-3 and increased the level of cleaved caspased-3 and cleaved PARP			obvious body weight loss	serious body weight loss	serious body weight loss was observed
